Measured values from patent US7335814B2, “Transgenic cells expressing glucosyltransferase nucleic acids” (The University of York, priority 2000, dated 2008).

How the values were obtained:
[1] = biological target: T1, recombinant GTase A961 (Arabidopsis thaliana, UniProt O82381); assay: Specific activity of recombinant GTase producing O-glucosides against lignin precursors (HPLC); assay type: biochemical; settings: 30° C.; ND = not detected
T1 construct: made in house; host or cells: E. coli
T1 sequence (O82381 1-481): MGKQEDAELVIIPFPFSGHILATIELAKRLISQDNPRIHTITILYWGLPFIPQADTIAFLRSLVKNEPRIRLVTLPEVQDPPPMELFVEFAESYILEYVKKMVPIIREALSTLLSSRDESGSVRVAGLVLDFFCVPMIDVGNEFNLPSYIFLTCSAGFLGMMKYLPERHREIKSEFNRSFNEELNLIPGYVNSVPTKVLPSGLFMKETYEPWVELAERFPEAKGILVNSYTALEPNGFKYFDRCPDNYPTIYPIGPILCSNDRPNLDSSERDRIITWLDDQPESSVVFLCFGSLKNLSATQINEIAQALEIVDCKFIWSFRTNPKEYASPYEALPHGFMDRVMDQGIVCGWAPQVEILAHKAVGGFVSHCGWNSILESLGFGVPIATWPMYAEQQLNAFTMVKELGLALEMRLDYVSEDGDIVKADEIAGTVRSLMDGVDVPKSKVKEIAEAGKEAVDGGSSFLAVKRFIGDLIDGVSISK

[2] = biological target: T2, recombinant GTase A911 (Arabidopsis thaliana, UniProt O22182); assay: Kinetic studies (Michaelis-Menten) on recombinant GTase producing glucose esters; settings: glucose ester formation
T2 sequence (O22182 1-456): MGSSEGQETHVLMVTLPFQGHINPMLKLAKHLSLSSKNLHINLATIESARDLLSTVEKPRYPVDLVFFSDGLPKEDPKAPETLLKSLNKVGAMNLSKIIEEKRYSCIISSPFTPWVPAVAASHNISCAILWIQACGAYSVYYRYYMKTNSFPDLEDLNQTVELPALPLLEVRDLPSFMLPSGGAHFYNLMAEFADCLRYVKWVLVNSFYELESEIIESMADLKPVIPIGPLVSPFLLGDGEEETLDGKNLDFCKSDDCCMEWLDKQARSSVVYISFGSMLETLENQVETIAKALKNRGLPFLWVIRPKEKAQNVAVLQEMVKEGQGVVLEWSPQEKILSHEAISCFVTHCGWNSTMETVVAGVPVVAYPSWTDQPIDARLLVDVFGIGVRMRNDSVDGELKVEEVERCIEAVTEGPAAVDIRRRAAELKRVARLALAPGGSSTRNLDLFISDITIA

Compound	Specific activity of A961 (substrate converted to 4-O-glucoside) [1] [nkat/mg]	Vmax (A911) [2] [nkat/mg]
O=C(O)/C=C/c1ccc(O)cc1 [p-coumaric acid]	0.01	–
COc1cc(/C=C/C(=O)O)ccc1O [Ferulic acid, ferulic acid]	–	6.91
